test system: Mus musculus; experiment: Antitetrabenazine activity in ip dosed CD1 mouse assessed as inhibition of tetrabenazine-induced ptosis challenged with tetrabenazine after 30 mins later and after another 30 mins of drug treatment; assay type: functional; settings: 0.5 h

First: NN1CCC2(CC1)OC(c1ccccc1)c1ccccc12 (stereo unspecified)
Second: ON1CCC2(CC1)OC(c1ccccc1)c1ccccc12 (stereo unspecified)
The ED50 of the first is 4.9-fold higher: 6.8 mg/kg for the first, 1.4 mg/kg for the second.

`O=NN1CCC2(CC1)OC(c1ccccc1)c1ccccc12` (stereo unspecified) and `CC(C)NN1CCC2(CC1)OC(c1ccccc1)c1ccccc12` (stereo unspecified) cannot be ordered by ED50: over 25 mg/kg for the first, over 25 mg/kg for the second.

Compared with `O=C(ON1CCC2(CC1)OC(c1ccccc1)c1ccccc12)c1ccccc1` (stereo unspecified), `c1ccc(C2OC3(CCNCC3)c3ccccc32)cc1` (stereo unspecified) is lower in ED50: over 25 mg/kg for the first, 0.5 mg/kg for the second.

`COc1ccc(C2OC3(CCN(O)CC3)c3ccccc32)cc1` (stereo unspecified) and `ON1CCC2(CC1)OC(c1ccc(F)cc1)c1ccccc12` (stereo unspecified) are within 1.5-fold of each other in ED50: 3.5 mg/kg for the first, 4 mg/kg for the second.

Going from `COc1ccc2c(c1)C1(CCN(O)CC1)OC2c1ccccc1` (stereo unspecified) to `CNCCCN1c2ccccc2CCc2ccccc21` [DESIPRAMINE], the ED50 falls from 4.7 mg/kg to 0.8 mg/kg (5.9-fold).

Work on `CN(C)CCCN1c2ccccc2CCc2ccccc21` [IMIPRAMINE] yielded an ED50 of 1.3 mg/kg.

Source: ChEMBL document CHEMBL3243944, “Synthesis of spiro[isobenzofuran-1(3H),4'-piperidines] as potential central nervous system agents. 2. Compounds containing a heteroatom attached to nitrogen” (1977)
